Test results taken from PMC5382200, “Mapping and Identification of Antifungal Peptides in the Putative Antifungal Protein AfpB from the Filamentous Fungus Penicillium digitatum” (Frontiers in Microbiology, 2017).
≈ marks a conversion by molar mass, not a printed value. Entries after “also recorded” stand apart in the source; their conditions may differ. Like-named read-outs stand apart in the source and are kept apart here. Positions of bridges follow the written chain, without caps; N, C: chain ends. Residues, ends and D or L forms follow the SMILES beside them. No end group written: not given here.

Key:
proteinase K = test system: T1, proteinase K; experiment: Proteolytic digestion assay with RP-HPLC analysis; format: in vitro ADME; settings: recombinant proteinase K; proteinase K 5 μg/mL (2 U/mg), peptide 5 μM in 10 mM MOPS pH 7, 30°C, 24 h; RP-HPLC C18 peak area at 214 nm; two replicates; read-out: peptide left after 24 h of treatment
T1 construct: purchased Roche, Mannheim, Germany
Protocol: (§1) The proteolytic digestion assays were performed as described ([Ferre et al., 2006]; [López-García et al., 2015]) with minor modifications. Peptides (5 μM) were dissolved in 10 mM MOPS pH 7 and digested with 5 μg/mL of recombinant proteinase K (2 U/mg; Roche, Mannheim, Germany) at 30°C. Aliquots were withdrawn from the reaction mixtures at 0, 1, 2, and 24 h of incubation and immediately heated at 80°C for 10 min to inactivate the enzyme. Two replicates were prepared for each treatment, and the experiments were repeated at least twice.
(§2) Analyses of peptide digests were conducted by RP-HPLC using a Waters system (Waters Corporation, Milford, MA, USA) equipped with a 1525 Binary HPLC pump, a 2996 Photodiode Array Detector, and a 717 plus Autosampler. A Symmetry C18 column (4.6 mm × 150 mm, 5 μm, Waters Corporation) kept at 40°C was operated at a flow rate of 1 mL/min. Peptides were eluted with a linear gradient of solvent B [acetonitrile with 0.1% trifluoroacetic acid (TFA)] in solvent A (water with 0.1% TFA) 0–40% in 20 min and detected at 214 nm.

A. niger CBS 120.49 = test system: A. niger CBS 120.49
Protocol: (§3) The fungal strains used in this study are P. digitatum CECT20796, P. chrysogenum Q176, Botrytis cinerea CECT2100, Fusarium oxysporum 4287, and Aspergillus niger CBS 120.49. Fungi were cultured on potato dextrose agar (Difco-BD Diagnostics, Sparks, MD, USA) plates for 7–10 days at 24°C with the exception of F. oxysporum, which was cultured on potato dextrose broth (PDB; Difco-BD Diagnostics) at 28°C for 4 days with shaking. Conidia (mitotic asexual spores) were collected, filtered, and adjusted to the appropriate concentration. For antibacterial assays, the Gram-negative bacterium Escherichia coli JM109 was grown in Luria-Bertani (LB) medium at 37°C with shaking.
(§4) Growth inhibition assays were performed in 96-well microtiter plates (Nunc, Roskilde, Denmark) in a total volume of 100 μL as described previously ([López-García et al., 2002]). […] All samples were prepared in triplicate. Plates were statically incubated for 72 h at the optimal temperature of each microorganism. Growth was determined by measuring the optical density (OD) at 600 nm (OD600) using a Multiskan Spectrum plate spectrophotometer (Thermo Electron Corporation, Vantaa, Finland), and the OD600 mean and SD were calculated. Dose–response curves were generated from measurements after 72 h for fungi, and 48 h for E. coli. These experiments were repeated at least twice.

P. digitatum CECT20796 = test system: P. digitatum CECT20796
Protocol: as §3, §4

B. cinerea CECT2100 = test system: B. cinerea CECT2100
Protocol: as §3, §4

P. chrysogenum Q176 = settings: 72 h
Protocol: as §3, §4

recombinant proteinase K [1] = biological target: T2, recombinant proteinase K (Parengyodontium album, UniProt P06873); settings: control peptide; ref López-García et al., 2015; cited from earlier work
T2 construct: purchased Roche, Mannheim, Germany
Protocol: To exclude the possibility that increased sensitivity to proteolytic degradation could be the reason for limited antifungal activity, we tested the in vitro stability of the peptides derived from AfpB by incubation with proteinase K at different times and RP-HPLC analysis of the resultant digests.

F. oxysporum 4287 = settings: 4287, 72 h
Protocol: as §3, §4

mammalian cells = settings: ref Marx et al., 2008; cited from earlier work
From the text: (§5) There is an urgent need to develop new antifungal molecules with properties and mechanisms of action different from existing ones ([Brown et al., 2012]; [Fisher et al., 2012]). […] A remarkable group of AMPs are the antifungal proteins (AFPs) of fungal origin. AFPs belong to the broad class of defensins and are p ...

[2] = ref Palicz et al., 2013; cited from earlier work
From the text: as §5

recombinant proteinase K [3] = biological target: T2, recombinant proteinase K; experiment: Proteolytic digestion assay with RP-HPLC analysis; format: in vitro ADME; settings: two replicates; for resistance to degradation by proteinase K (in words): peptide 5 μM in 10 mM MOPS pH 7, 30°C, 0, 1, 2 and 24 h
Protocol: as §1, §2

[4] = B. cinerea CECT2100, 2.5 × 10^4 conidia/mL in 1/20 diluted PDB with 0.01% chloramphenicol, 72 h, OD600, triplicate
[5] = proteinase K 5 μg/mL, RP-HPLC peak area at 214 nm

T2 sequence (P06873 106-384): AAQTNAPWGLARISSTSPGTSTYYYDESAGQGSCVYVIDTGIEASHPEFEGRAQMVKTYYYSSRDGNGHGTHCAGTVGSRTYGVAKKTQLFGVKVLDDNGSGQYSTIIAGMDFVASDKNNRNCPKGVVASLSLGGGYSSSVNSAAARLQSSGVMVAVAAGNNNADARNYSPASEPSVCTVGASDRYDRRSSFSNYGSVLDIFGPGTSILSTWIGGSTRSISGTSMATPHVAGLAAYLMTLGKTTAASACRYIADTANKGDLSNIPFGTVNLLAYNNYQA

Row | Molecule | Minimum inhibitory concentration (MIC) (A. niger CBS 120.49; CBS 120.49, 72 h) | Minimum inhibitory concentration (MIC) (P. digitatum CECT20796; CECT20796, 72 h) | Minimum inhibitory concentration (MIC) (B. cinerea CECT2100; [4]) | Minimum inhibitory concentration (MIC) (P. chrysogenum Q176) | resistance to degradation by proteinase K (in words) (recombinant proteinase K [3]; [5]) | other results
1 | C[C@@H]1NC(=O)[C@H](C)NC(=O)[C@H](CO)NC(=O)CNC(=O)[C@@H](NC(=O)[C@@H](N)CC(N)=O)CSSC[C@@H](C(=O)N[C@@H](CCC(=O)O)C(=O)O)NC(=O)[C@H](Cc2c[nH]cn2)NC(=O)[C@H](Cc2c[nH]cn2)NC(=O)[C@H](CCCNC(=N)N)NC(=O)[C@H](CC(=O)O)NC(=O)[C@H](CO)NC(=O)[C@H](CCCCN)NC(=O)[C@H](C)NC(=O)[C@H](CCCNC(=N)N)NC(=O)[C@H](CCCCN)NC(=O)[C@H](CC(N)=O)NC1=O [PAF112] (H-NCGSAANKRAKSDRHHCE-OH; disulfide 2-17) | >128 µM | 64 µM (≈ 127 µg/mL) | 128 µM (≈ 254 µg/mL) | >128 µM | – | remaining at 24 h, 5 μM (proteinase K): ~20%
2 | RKKWFW [PAF26, reference compound] | 8 µM | 8 µM | – | 16 µM | – | resistance to protease degradation (recombinant proteinase K [1]): highly resistant; Minimum inhibitory concentration (MIC) (F. oxysporum 4287): 16 µM; Minimum inhibitory concentration (MIC) (B. cinerea CECT2100; CECT2100, 72 h): 8 µM
3 | C[C@@H]1NC(=O)[C@H](CCCCN)NC(=O)[C@H](CCCCN)NC(=O)[C@H](CC(N)=O)NC(=O)[C@H](CC(=O)O)NC(=O)[C@H](Cc2ccccc2)NC(=O)[C@H](CCCCN)NC(=O)[C@@H]2CCCN2C(=O)[C@@H](NC(=O)[C@@H](N)CCCCN)CSSC[C@@H](C(=O)N[C@H](C(=O)O)[C@@H](C)O)NC(=O)[C@H](CCCCN)NC(=O)[C@H](CC(N)=O)NC(=O)[C@H](CC(N)=O)NC(=O)[C@H](CC(=O)O)NC(=O)[C@H](CCCCN)NC(=O)[C@H]([C@@H](C)O)NC1=O [PAF116] (H-KCPKFDNKKATKDNNKCT-OH; disulfide 2-17) | – | 32 µM (≈ 66.6 µg/mL) | 16 µM (≈ 33.3 µg/mL) | – | – | –
4 | AKYTGKCTKSKNECKYKNDAGKDTFIKCPKFDNKKCTKDNNKCTVDTYNNAVDCD (disulfide 7-36, 14-43, 28-54) [PAF protein] | – | – | – | – | – | toxicity to mammalian cells in vitro (mammalian cells): non-toxic; toxicity in vivo [2]: non-toxic
5 | NAGSAANKRAKSDRHHAE [PAF113] | – | – | 128 µM | – | high sensitivity | degradation after 1 h of treatment (recombinant proteinase K [3]; proteinase K 5 μg/mL, peptide 5 μM in 10 mM MOPS pH 7, 30°C, 1 h, RP-HPLC peak area at 214 nm): completely degraded; Minimum inhibitory concentration (MIC) (A. niger CBS 120.49; A. niger CBS 120.49, 2.5 × 10^4 conidia/mL in 1/20 diluted PDB with 0.01% chloramphenicol, 72 h, OD600, triplicate): >128 µM; Minimum inhibitory concentration (MIC) (P. digitatum CECT20796; P. digitatum CECT20796, 2.5 × 10^4 conidia/mL in 1/20 diluted PDB with 0.01% chloramphenicol, 72 h, 24°C, OD600, triplicate, repeated at least twice, concentration that completely inhibited growth in all experiments): 64 µM; Minimum inhibitory concentration (MIC) (P. chrysogenum Q176; P. chrysogenum Q176, 2.5 × 10^4 conidia/mL in 1/20 diluted PDB with 0.01% chloramphenicol, OD600, triplicate): >128 µM
6 | CC[C@H](C)[C@@H]1NC(=O)[C@H](C(C)C)NC(=O)[C@H](CC(N)=O)NC(=O)[C@H](CCCNC(=N)N)NC(=O)CNC(=O)CNC(=O)[C@H](CCCCN)NC(=O)[C@H](CC(C)C)NC(=O)[C@H](Cc2ccc(O)cc2)NC(=O)[C@H]([C@@H](C)O)NC(=O)[C@@H](NC(=O)[C@@H](NC(=O)[C@@H](N)CC(N)=O)[C@@H](C)O)CSSC[C@@H](C(=O)NCC(=O)O)NC(=O)[C@H](CC(N)=O)NC(=O)[C@H](C(C)C)NC1=O [PAF118] (H-NTCTYLKGGRNVIVNCG-OH; disulfide 3-16) | >128 µM | 64 µM (≈ 116 µg/mL) | 64 µM (≈ 116 µg/mL) | >128 µM | – | peptide left after 24 h of treatment (recombinant proteinase K [3]; proteinase K 5 μg/mL (2 U/mg), peptide 5 μM in 10 mM MOPS pH 7, 30°C, 24 h, RP-HPLC C18 peak area at 214 nm): around 20%; intact peptide after 1 and 2 h of treatment (recombinant proteinase K [3]; proteinase K 5 μg/mL, peptide 5 μM in 10 mM MOPS pH 7, 30°C, 1 and 2 h, RP-HPLC peak area at 214 nm): severe reduction
7 | CC(C)C[C@@H]1NC(=O)[C@H](CO)NC(=O)[C@@H](NC(=O)[C@H](CCC(N)=O)NC(=O)CN)CSSC[C@@H](C(=O)N[C@H](C(=O)O)[C@@H](C)O)NC(=O)[C@H]([C@@H](C)O)NC(=O)[C@H](CC(N)=O)NC(=O)[C@H](Cc2c[nH]cn2)NC(=O)[C@H](CCCCN)NC1=O [PAF109] (H-GQCSLKHNTCT-OH; disulfide 3-10) | – | – | – | – | remarkably resistant; also recorded: extremely stable | –
8 | CC(C)[C@@H]1NC(=O)[C@H](CCCNC(=N)N)NC(=O)[C@H](CCCNC(=N)N)NC(=O)[C@H](Cc2c[nH]cn2)NC(=O)[C@H](Cc2c[nH]cn2)NC(=O)[C@H](CCC(=O)O)NC(=O)[C@H](CC(=O)O)NC(=O)[C@H](Cc2ccc(O)cc2)NC(=O)[C@H](CCC(=O)O)NC(=O)[C@@H](NC(=O)[C@@H](N)Cc2c[nH]cn2)CSSC[C@@H](C(=O)N[C@@H](CCC(N)=O)C(=O)O)NC(=O)[C@H](CC(=O)O)NC1=O [PAF119] (H-HCEYDEHHRRVDCQ-OH; disulfide 2-13) | – | – | – | – | remarkably resistant; also recorded: extremely stable | –
